The record followed here is patent publication US11267812B2 (Mirati Therapeutics, Inc., priority 2016, dated 2022).

The structures appear in SMILES notation. Read-outs that look alike come from different tables or passages of the source.

In one test the target is KRas G12C (Homo sapiens, UniProt P01116, C118S/C51S/C80L/G12C). In words: KRas G12C Modification Assay (LCMS detection of covalent adduct). It is filed as binding. The following applies: 5 μM compound, 3 hours. The procedure: A 10 μL aliquot of each protein solution was then transferred to a 384 well microtiter plate. Initial compound stocks were generated at fifty times their desired final assay concentration in DMSO.
Exemplary compounds of Formula (I) were diluted 25-fold into K-Ras Assay Buffer to a final of two times their final concentration. A 10 μL aliquot of each diluted compound solution was then added to each of the protein solutions in the microtiter plate to initiate reaction. […] At each time point, the reactions were quenched with 20 μL of a 25 mM acetic acid solution. […] Once all reactions were quenched, the plates were heat sealed and the samples were injected into a LC/MS system for data acquisition.
Samples were injected in their liquid phase onto a C-3 reverse phase column to remove assay buffer and prepare the samples for mass spectrometer. The proteins were eluted from the column using an acetonitrile gradient and fed directly into the mass analyzer. Initial raw data analysis took place in Agilent MassHunter software immediately post data acquisition.
Raw data analysis of the intact protein was exclusively a deconvolution of the multiple charge states of each protein in solution using a maximum entropy deconvolution provided in Mass Hunter. To minimize complexity, only the data over limited mass ranges were considered for analysis, with a minimum of one Dalton mass step intervals. The heights of all masses identified during raw data analysis were exported to be further analyzed in Spotfire® data analysis software.
Final data analysis was a multistep process in the Spotfire® data analysis software package. Briefly, each protein mass was calculated as a percent of the total signal of that sample, that percentage was then normalized to the percentage of signal of the protein in the absence of reactive compounds. Those normalized signals were reported as normalized percent of control (POC). […] Key: “A”≤25% POC; “B”>25% POC≤50% POC; “C”>50% POC and ND=not determined.

The test system of test [1] is Phospho-ERK in NCI-H358 cells expressing KRas G12C. The test can be described thus: Cellular inhibition of KRas G12C by Phospho-ERK measurement in NCI-H358 cells. The format is cell-based. The following applies: Homo sapiens, read-out: IC50 (pERK(Thr202/Tyr204) normalized with GAPDH). An outline of the steps: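 After 8–12 h attachment, NCI-H358 cells were treated with compounds for 3 h (0.5% DMSO final), fixed, methanol-permeabilized and immunostained. pERK(Thr202/Tyr204) was read by infrared imaging and normalized to GAPDH as percent of DMSO control. IC50 came from a 4-parameter fit.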

[2] abbreviates: NCI-H358 cells, 3 hours compound treatment.

Turning to `C=CC(=O)N1CCN(c2nc(OC[C@H]3CCCN3C)nc3c2CCN(c2cccc4ccccc24)C3)C[C@@H]1CC#N` [Example 267, 2-((S)-1-acryloyl-4-(2-(((R)-1-methylpyrrolidin-2-yl)methoxy)-7-(naphthalen-1-yl)-5,6,7,8-tetrahydropyrido[3,4-d]pyrimidin-4-yl)piperazin-2-yl)acetonitrile], the “POC (normalized percent of control, KRas G12C modification)” value at KRas G12C is “C (“C”>50% POC)”. Also, the IC50 in test [1] (NCI-H358, 3 h) was in the range of 1 to 1000 nM.
Turning to `C=CC(=O)N1CCN(c2nc(OCCCN3CC4CC4C3)nc3c2CCN(c2cc(O)cc4ccccc24)C3)CC1` (stereo not drawn) [Example 206, 1-(4-(2-(3-(3-azabicyclo[3.1.0]hexan-3-yl)propoxy)-7-(3-hydroxynaphthalen-1-yl)-5,6,7,8-tetrahydropyrido[3,4-d]pyrimidin-4-yl)piperazin-1-yl)prop-2-en-1-one], at KRas G12C, the “POC (normalized percent of control, KRas G12C modification)” value is on record as “C (“C”>50% POC)”. For the same compound, the IC50 in test [1] (setting [2]) was 1 to 1000 nM.
Take `C=CC(=O)N1CCN(c2nc(OC[C@]3(C)CCCN3C)nc3c2CCN(c2cccc4ccccc24)C3)CC1CC#N` (stereo partly drawn) [Example 251, 2-(1-acryloyl-4-(2-(((S)-1,2-dimethylpyrrolidin-2-yl)methoxy)-7-(naphthalen-1-yl)-5,6,7,8-tetrahydropyrido[3,4-d]pyrimidin-4-yl)piperazin-2-yl)acetonitrile]: the “POC (normalized percent of control, KRas G12C modification)” value on KRas G12C is recorded as “C (“C”>50% POC)”. For the same compound, in test [1] (setting [2]), the IC50 is 1 to 1000 nM.
For `C=CC(=O)N1CCN(c2nc(OC[C@@H]3CCCN3C)nc3c2CCN(c2ccccc2C(F)(F)F)C3)CC1CC#N` (stereo partly drawn) [Example 210, 2-(1-acryloyl-4-(2-(((S)-1-methylpyrrolidin-2-yl)methoxy)-7-(2-(trifluoromethyl)phenyl)-5,6,7,8-tetrahydropyrido[3,4-d]pyrimidin-4-yl)piperazin-2-yl)acetonitrile], the “POC (normalized percent of control, KRas G12C modification)” value on KRas G12C is “C (“C”>50% POC)”. For the same compound, the IC50 in test [1] (setting [2]) is 1 to 1000 nM.
For `C=CC(=O)N1CCN(c2nc(OCCCO)nc3c2CCN(c2cccc4ccccc24)C3)CC1CC#N` (stereo not drawn) [Example 231, 2-(1-acryloyl-4-(2-(3-hydroxypropoxy)-7-(naphthalen-1-yl)-5,6,7,8-tetrahydropyrido[3,4-d]pyrimidin-4-yl)piperazin-2-yl)acetonitrile], the “POC (normalized percent of control, KRas G12C modification)” value at KRas G12C is reported as “C (“C”>50% POC)”. The IC50 in test [1] (setting [2]) was 1 to 1000 nM.
`C=CC(=O)N1CCN(c2nc(OCCCN3C[C@H]4C[C@@H]3CO4)nc3c2CCN(c2cc(O)cc4ccccc24)C3)CC1` [Example 185, 1-(4-(2-(3-((1R,4R)-2-oxa-5-azabicyclo[2.2.1]heptan-5-yl)propoxy)-7-(3-hydroxynaphthalen-1-yl)-5,6,7,8-tetrahydropyrido[3,4-d]pyrimidin-4-yl)piperazin-1-yl)prop-2-en-1-one]: at KRas G12C, the “POC (normalized percent of control, KRas G12C modification)” value is reported as “C (“C”>50% POC)”. Moreover, the IC50 in test [1] (setting [2]) was 1 to 1000 nM.
`C=CC(=O)N1CCN(c2nc(OC[C@@H]3CCCN3C)nc3c2CCN(c2cccc4ccncc24)C3)CC1CC#N` (stereo partly drawn) [Example 244, 2-[4-[7-(8-isoquinolyl)-2-[[(2S)-1-methylpyrrolidin-2-yl]methoxy]-6,8-dihydro-5H-pyrido[3,4-d]pyrimidin-4-yl]-1-prop-2-enoyl-piperazin-2-yl]acetonitrile]: at KRas G12C, the “POC (normalized percent of control, KRas G12C modification)” value was “C (“C”>50% POC)”. Also, the IC50 in test [1] (setting [2]) fell in the range of 1 to 1000 nM.
As to `C=CC(=O)N1CCN(c2nc(OC[C@@H]3CCCN3C)nc3c2CCN(c2cccc4ccc(C)cc24)C3)CC1CC#N` (stereo partly drawn) [Example 245, 2-[4-[7-(7-methyl-1-naphthyl)-2-[[(2S)-1-methylpyrrolidin-2-yl]methoxy]-6,8-dihydro-5H-pyrido[3,4-d]pyrimidin-4-yl]-1-prop-2-enoyl-piperazin-2-yl]acetonitrile], the “POC (normalized percent of control, KRas G12C modification)” value at KRas G12C is reported as “C (“C”>50% POC)”. Further, the IC50 in test [1] (setting [2]) lay in the range of 1 to 1000 nM.
Consider `C=CC(=O)N1CCN(c2nc(O[C@H](C)CN(C)CC)nc3c2CCN(c2cc(O)cc4ccccc24)C3)CC1` [Example 131, 1-[4-[2-[(1R)-2-[ethyl(methyl)amino]-1-methyl-ethoxy]-7-(3-hydroxy-1-naphthyl)-6,8-dihydro-5H-pyrido[3,4-d]pyrimidin-4-yl]piperazin-1-yl]prop-2-en-1-one], for which, on KRas G12C, the “POC (normalized percent of control, KRas G12C modification)” value is listed as “C (“C”>50% POC)”. In test [1] (setting [2]), the IC50 lay within 1 to 1000 nM.
With `C=CC(=O)N1CCN(c2nc(OC[C@@H]3CCN(C)C3)nc3c2CCN(c2cccc4ccccc24)C3)CC1CC#N` (stereo partly drawn) [Example 177, 2-[4-[2-[[(3R)-1-methylpyrrolidin-3-yl]methoxy]-7-(1-naphthyl)-6,8-dihydro-5H-pyrido[3,4-d]pyrimidin-4-yl]-1-prop-2-enoyl-piperazin-2-yl]acetonitrile], the “POC (normalized percent of control, KRas G12C modification)” value on KRas G12C was “C (“C”>50% POC)”. For the same compound, the IC50 in test [1] (setting [2]) lay in the range of 1 to 1000 nM.
The corresponding values for `C=CC(=O)N1CCN(c2nc(OC[C@@H]3CCCN3C)nc3c2CCN(c2c(C)c(O)cc4ccccc24)C3)CC1` [Example 175, (S)-1-(4-(7-(3-hydroxy-2-methylnaphthalen-1-yl)-2-((1-methylpyrrolidin-2-yl)methoxy)-5,6,7,8-tetrahydropyrido[3,4-d]pyrimidin-4-yl)piperazin-1-yl)prop-2-en-1-one] are “C (“C”>50% POC)” and 1 to 1000 nM.
Take `C=CC(=O)N1CCN(c2nc(OC[C@@H]3CCCN3C)nc3c2CCN(c2cc(O)cc4ccccc24)C3)CC1CC#N` (stereo partly drawn) [Example 182, 2-[4-[7-(3-hydroxy-1-naphthyl)-2-[[(2S)-1-methylpyrrolidin-2-yl]methoxy]-6,8-dihydro-5H-pyrido[3,4-d]pyrimidin-4-yl]-1-prop-2-enoyl-piperazin-2-yl]acetonitrile]: the “POC (normalized percent of control, KRas G12C modification)” value at KRas G12C is “C (“C”>50% POC)”. For the same compound, the IC50 in test [1] (setting [2]) is 1 to 1000 nM.
Regarding `CC#CC(=O)N1CCN(c2nc(OC[C@@H]3CCCN3C)nc3c2CCN(c2cccc4ccccc24)C3)CC1CC#N` (stereo partly drawn) [Example 242, 2-(1-(but-2-ynoyl)-4-(2-(((S)-1-methylpyrrolidin-2-yl)methoxy)-7-(naphthalen-1-yl)-5,6,7,8-tetrahydropyrido[3,4-d]pyrimidin-4-yl)piperazin-2-yl)acetonitrile], the “POC (normalized percent of control, KRas G12C modification)” value at KRas G12C is on record as “C (“C”>50% POC)”. For the same compound, in test [1] (NCI-H358, 3 h), the IC50 lay within 1 to 1000 nM.
As for `C=CC(=O)N1CCN(c2nc(OCCN(C)C)nc3c2CCN(c2cc(O)cc4ccccc24)C3)CC1CC#N` (stereo not drawn) [Example 170, 2-(1-acryloyl-4-(2-(2-(dimethylamino)ethoxy)-7-(3-hydroxynaphthalen-1-yl)-5,6,7,8-tetrahydropyrido[3,4-d]pyrimidin-4-yl)piperazin-2-yl)acetonitrile], the “POC (normalized percent of control, KRas G12C modification)” value at KRas G12C was “C (“C”>50% POC)”. In addition, the IC50 in test [1] (setting [2]) is 1 to 1000 nM.
The corresponding values for `C=CC(=O)N1CCN(c2nc(OC[C@@H]3CCCN3C)nc3c2CCN(c2c(F)c(O)cc4ccccc24)C3)CC1` [Example 249, 1-[4-[7-(2-fluoro-3-hydroxy-1-naphthyl)-2-[[(2S)-1-methylpyrrolidin-2-yl]methoxy]-6,8-dihydro-5H-pyrido[3,4-d]pyrimidin-4-yl]piperazin-1-yl]prop-2-en-1-one] are “C (“C”>50% POC)” and 1 to 1000 nM.
